Test results reported in ChEMBL document CHEMBL3879915, “Methods of inhibiting PRMT5” (2014).
pEC50, pIC50: −log10 of the molar value.

Tests used:
[1] = Antiproliferative activity against human Z138 cells assessed as inhibition of cell viability after 5 days by Cell-Titer Glo assay; type: functional, cell-based; details: Z-138, 120 h
[2] = target: Protein arginine N-methyltransferase 5 (Homo sapiens, UniProt O14744); experiment: Inhibition of PRMT5 in human Z138 cells assessed as decrease in di-methyl arginine levels after 96 hrs by Western blot method; type: cell-based
Chain of Protein arginine N-methyltransferase 5 (O14744 whole entry, the tested form may be a part): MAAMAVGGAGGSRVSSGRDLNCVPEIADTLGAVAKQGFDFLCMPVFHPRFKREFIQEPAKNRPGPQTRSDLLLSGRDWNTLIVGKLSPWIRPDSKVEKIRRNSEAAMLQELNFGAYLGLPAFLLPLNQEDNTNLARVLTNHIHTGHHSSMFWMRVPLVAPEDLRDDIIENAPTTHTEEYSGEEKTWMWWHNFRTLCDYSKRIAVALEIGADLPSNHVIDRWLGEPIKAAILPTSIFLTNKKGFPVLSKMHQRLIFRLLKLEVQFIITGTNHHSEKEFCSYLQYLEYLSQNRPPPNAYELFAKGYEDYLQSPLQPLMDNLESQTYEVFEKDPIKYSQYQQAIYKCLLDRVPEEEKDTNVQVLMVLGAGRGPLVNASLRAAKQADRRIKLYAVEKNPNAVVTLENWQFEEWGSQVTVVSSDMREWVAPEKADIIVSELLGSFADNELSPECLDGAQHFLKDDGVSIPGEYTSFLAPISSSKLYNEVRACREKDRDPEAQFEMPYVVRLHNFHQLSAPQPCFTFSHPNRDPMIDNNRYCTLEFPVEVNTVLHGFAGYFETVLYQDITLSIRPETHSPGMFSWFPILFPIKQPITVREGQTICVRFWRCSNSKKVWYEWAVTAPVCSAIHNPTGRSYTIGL

PRMT5/MEP50 complex = PRMT5/MEP50 complex (Homo sapiens, UniProt O14744); experiment: Inhibition of recombinant human fetal brain FLAG-tagged PRMT5/full length human testis 6His-tagged MEP50 expressed in baculovirus infected insect Sf9 cells using human histone H4 (1 to 15 residues) as substrate preincubated for 30 mins followed by [3H]-SAM addition
Chain of PRMT5/MEP50 complex (O14744 whole entry, the tested form may be a part): as above
Chain of PRMT5/MEP50 complex (Q9BQA1 whole entry, further chain, the tested form may be a part): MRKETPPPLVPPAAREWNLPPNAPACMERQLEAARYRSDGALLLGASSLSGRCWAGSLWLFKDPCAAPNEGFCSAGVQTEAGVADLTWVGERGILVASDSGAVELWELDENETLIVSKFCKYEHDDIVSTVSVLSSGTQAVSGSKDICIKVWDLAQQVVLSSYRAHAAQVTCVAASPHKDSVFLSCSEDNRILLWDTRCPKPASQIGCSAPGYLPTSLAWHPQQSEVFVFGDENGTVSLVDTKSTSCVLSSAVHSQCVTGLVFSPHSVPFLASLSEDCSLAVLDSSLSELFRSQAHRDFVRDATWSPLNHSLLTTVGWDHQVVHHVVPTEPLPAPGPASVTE

Compound | pEC50 [1] | pEC50 [2] | pIC50 (PRMT5/MEP50 complex)
NS(=O)(=O)c1cccc(C(=O)NCC(O)CN2CCc3ccccc3C2)c1 (stereo unspecified) | < 4.70 | 6.00 to 7.00 | 6.00 to 7.00
Cn1ccc2ccc(-c3cccc(OCC(O)CN4CCc5ccccc5C4)c3)cc21 (stereo unspecified) | 4.40 to 5.00 | 5.00 to 6.00 | 6.00 to 7.00
N#Cc1ccc(-c2cccc(OCC(O)CN3CCc4ccccc4C3)c2)cc1 (stereo unspecified) | 4.40 to 5.00 | 5.00 to 6.00 | 6.00 to 7.00
O=C(NC[C@@H](O)CN1CCc2ccccc2C1)c1cccc(NC2CCOCC2)c1 | 5.00 to 6.00 | 6.00 to 7.00 | 6.00 to 7.00
OC(COc1cccc(-c2ccccc2C(F)(F)F)c1)CN1CCc2ccccc2C1 (stereo unspecified) | < 4.70 | 5.00 to 6.00 | 6.00 to 7.00
Cn1cc2ccc(-c3cc(NCC(O)CN4CCc5ccccc5C4)ncn3)cc2n1 (stereo unspecified) | < 4.70 | 6.00 to 7.00 | 6.00 to 7.00
OC(COc1cccc(-c2ccc3ncn(C4CNC4)c3c2)c1)CN1CCc2ccccc2C1 (stereo unspecified) | 5.00 to 6.00 | 5.00 to 6.00 | 6.00 to 7.00
Cn1cnc2ccc(-c3cc(NCC(O)CN4CCc5ccccc5C4)n[nH]3)cc21 (stereo unspecified) | < 4.70 | 6.00 to 7.00 | 6.00 to 7.00
OC(COc1cccc(-c2csc3ccccc23)c1)CN1CCc2ccccc2C1 (stereo unspecified) | < 4.70 | 5.00 to 6.00 | 6.00 to 7.00
OC(CNc1cc(-c2ccc3ncn(C4CCNCC4)c3c2)ccn1)CN1CCc2ccccc2C1 (stereo unspecified) | 5.00 to 6.00 | 6.00 to 7.00 | > 7.00
Cn1ncc2ccc(-c3cc(COCC(O)CN4CCc5ccccc5C4)on3)cc21 (stereo unspecified) | < 4.70 | 5.00 to 6.00 | 6.00 to 7.00
Cc1ccncc1-c1cccc(OCC(O)CN2CCc3ccccc3C2)c1 (stereo unspecified) | 4.40 to 5.00 | 6.00 to 7.00 | 5.00 to 7.00
CN1CCN(c2ccc(-c3cccc(OCC(O)CN4CCc5ccccc5C4)c3)cn2)CC1 (stereo unspecified) | 5.00 to 6.00 | 5.00 to 6.00 | 6.00 to 7.00
O=C(COc1cccc2c1CCCC2)NCC(O)CN1CCc2ccccc2C1 (stereo unspecified) | 5.00 to 6.00 | 6.00 to 7.00 | > 7.00
Cn1cnc2cc(-c3cccc(OCC(O)CN4CCc5ccccc5C4)c3)ccc21 (stereo unspecified) | 4.40 to 5.00 | 6.00 to 7.00 | 6.00 to 7.00
OC(COc1cccc(-c2cccc3[nH]cnc23)c1)CN1CCc2ccccc2C1 (stereo unspecified) | 4.40 to 5.00 | 6.00 to 7.00 | > 7.00
CS(=O)(=O)Nc1ccccc1OCC(=O)NCC(O)CN1CCc2ccccc2C1 (stereo unspecified) | 5.00 to 6.00 | 6.00 to 7.00 | > 7.00
CN1C(=O)COc2cccc(OCC(=O)NCC(O)CN3CCc4ccccc4C3)c21 (stereo unspecified) | 4.30 to 5.00 | 6.00 to 7.00 | > 7.00
Cc1ccc(N2CCN(CC(O)CN3CCc4ccccc4C3)C(=O)C2)cc1 (stereo unspecified) | < 4.70 | 6.00 to 7.00 | 6.00 to 7.00
NS(=O)(=O)c1ccc(C(=O)NCC(O)CN2CCc3ccccc3C2)cc1 (stereo unspecified) | < 4.70 | 6.00 to 7.00 | 6.00 to 7.00
O=C(Cn1ccc2cnc(-c3ccnc(NCC(O)CN4CCc5ccccc5C4)c3)nc21)N1CCCC1 (stereo unspecified) | 5.00 to 6.00 | > 7.00 | > 7.00
O=C(COc1ccccc1C1CCCCC1)NCC(O)CN1CCc2ccccc2C1 (stereo unspecified) | 5.00 to 6.00 | 6.00 to 7.00 | > 7.00
CN1CCN(Cc2cccc(C(=O)NCC(O)CN3CCc4ccccc4C3)c2)CC1 (stereo unspecified) | 5.00 to 6.00 | 6.00 to 7.00 | > 7.00

Compound | pEC50 [1] | pEC50 [2] | pIC50 (PRMT5/MEP50 complex)
Cc1ncc2ccc(-c3cccc(OCC(O)CN4CCc5ccccc5C4)c3)cn12 (stereo unspecified) | 5.00 to 6.00 | 5.00 to 6.00 | > 7.00
Cn1cnc2ccc(-c3cc(NCC(O)CN4CCc5ccccc5C4)ccn3)cc21 (stereo unspecified) | 4.40 to 5.00 | 5.00 to 6.00 | 6.00 to 7.00
CN1CCN(C(=O)Cn2ccc3cnc(-c4ccnc(NCC(O)CN5CCc6ccccc6C5)c4)nc32)CC1 (stereo unspecified) | 5.00 to 6.00 | > 7.00 | > 7.00
CN1CC(n2cnc3ccc(-c4cccc(OCC(O)CN5CCc6ccccc6C5)c4)cc32)C1 (stereo unspecified) | 5.00 to 6.00 | 6.00 to 7.00 | > 7.00
CN(C)c1ccccc1N1CCN(C[C@H](O)CN2CCc3ccccc3C2)C(=O)C1 | 4.30 to 5.00 | 6.00 to 7.00 | 6.00 to 7.00
OC(CNc1cccc(CNC2CCCC2)c1)CN1CCc2ccccc2C1 (stereo unspecified) | < 4.70 | 5.00 to 6.00 | 6.00 to 7.00
O=C(COc1cccc2cccnc12)NC[C@H](O)CN1Cc2ccccc2C1 | 5.00 to 6.00 | 6.00 to 7.00 | > 7.00
COc1ccc2cccc(OCC(=O)NC[C@H](O)CN3CCc4ccccc4C3)c2n1 | 5.00 to 6.00 | 6.00 to 7.00 | 6.00 to 7.00
Cn1ccc2cnc(-c3ccnc(NCC(O)CN4CCc5ccccc5C4)c3)nc21 (stereo unspecified) | 5.00 to 6.00 | > 7.00 | > 7.00
O=C1CN(c2cncc(N3CCOCC3)c2)CCN1CC(O)CN1CCc2ccccc2C1 (stereo unspecified) | 5.00 to 6.00 | 6.00 to 7.00 | > 7.00
Cn1cnc2ccc(-c3cccc(OC[C@H](O)CN4CCc5ccccc5C4)c3)cc21 | 5.00 to 6.00 | 6.00 to 7.00 | > 7.00
CNCCOc1cccc(C(=O)NCC(O)CN2CCc3ccccc3C2)c1 (stereo unspecified) | < 4.70 | 5.00 to 6.00 | 6.00 to 7.00
Cc1ccc(OCC(=O)NCC(O)CN2CCc3ccccc3C2)cc1 (stereo unspecified) | 4.30 to 5.00 | 4.30 to 5.00 | 6.00 to 7.00
CN1CCC(n2ncc3cc(OCC(=O)NCC(O)CN4CCc5ccccc5C4)ccc32)C1 (stereo unspecified) | 4.30 to 5.00 | 6.00 to 7.00 | > 7.00
O=C(COc1ccccc1S(=O)(=O)N1CCNCC1)NCC(O)CN1CCc2ccccc2C1 (stereo unspecified) | 5.00 to 6.00 | > 7.00 | > 7.00
CN(C)c1ncccc1OCC(=O)NCC(O)CN1CCc2ccccc2C1 (stereo unspecified) | < 4.70 | 5.00 to 6.00 | 6.00 to 7.00
NC(=O)c1cccc(OCC(=O)NCC(O)CN2CCc3ccccc3C2)c1 (stereo unspecified) | 4.30 to 5.00 | 6.00 to 7.00 | 6.00 to 7.00
CS(=O)(=O)Nc1ccc(-c2cccc(OCC(O)CN3CCc4ccccc4C3)c2)cc1 (stereo unspecified) | 4.40 to 5.00 | 5.00 to 6.00 | 6.00 to 7.00
O=C(NCC(O)CN1CCc2ccccc2C1)c1ccc(-c2ccccn2)cc1 (stereo unspecified) | 6.00 to 7.00 | > 7.00 | > 7.00
O=C(COc1cccc2cccnc12)NCC(O)CN1Cc2ccccc2C1 (stereo unspecified) | < 4.70 | 5.00 to 6.00 | 6.00 to 7.00
CCN(c1cccc(C(=O)NCC(O)CN2CCc3ccccc3C2)c1C)C1CCOCC1 (stereo unspecified) | 5.00 to 6.00 | > 7.00 | > 7.00
OC(COc1cccc(-c2ccc3nc[nH]c3c2)c1)CN1CCc2ccccc2C1 (stereo unspecified) | 4.40 to 5.00 | 5.00 to 6.00 | 6.00 to 7.00
O=C1COc2ccccc2N1CC(O)CN1CCc2ccccc2C1 (stereo unspecified) | < 4.70 | 6.00 to 7.00 | 6.00 to 7.00

Compound | pEC50 [1] | pEC50 [2] | pIC50 (PRMT5/MEP50 complex)
COc1ccc(-c2cccc(OCC(O)CN3CCc4ccccc4C3)c2)cc1 (stereo unspecified) | 4.40 to 5.00 | 5.00 to 6.00 | 6.00 to 7.00
CC(=O)N1CCc2c(cccc2OCC(=O)NCC(O)CN2CCc3ccccc3C2)C1 (stereo unspecified) | 5.00 to 6.00 | > 7.00 | > 7.00
Cn1cnc2ccc(-c3ccnc(NCC(O)CN4CCc5ccccc5C4)n3)cc21 (stereo unspecified) | 5.00 to 6.00 | 6.00 to 7.00 | 6.00 to 7.00
CN1CCCC1c1cccc(C(=O)NCC(O)CN2CCc3ccccc3C2)c1 (stereo unspecified) | 4.30 to 5.00 | 6.00 to 7.00 | > 7.00
Cn1ncc2ccc(-c3ccnc(NCC(O)CN4CCc5ccccc5C4)c3)cc21 (stereo unspecified) | 5.00 to 6.00 | 6.00 to 7.00 | > 7.00
Cn1ccc2ccc(-c3cc(NCC(O)CN4CCc5ccccc5C4)ncn3)cc21 (stereo unspecified) | 4.40 to 5.00 | 6.00 to 7.00 | 6.00 to 7.00
COc1ccc(-c2cccc(OCC(O)CN3CCc4ccccc4C3)c2)c(C)c1 (stereo unspecified) | 4.40 to 5.00 | 5.00 to 6.00 | 6.00 to 7.00
COc1ccccc1OCC(=O)NCC(O)CN1CCc2ccccc2C1 (stereo unspecified) | 5.00 to 6.00 | 6.00 to 7.00 | > 7.00
CNS(=O)(=O)c1ccccc1OCC(=O)NCC(O)CN1CCc2ccccc2C1 (stereo unspecified) | 5.00 to 6.00 | 6.00 to 7.00 | > 7.00
O=C1CN(c2cccc3cccnc23)CCN1CC(O)CN1CCc2ccccc2C1 (stereo unspecified) | 5.00 to 6.00 | 6.00 to 7.00 | > 7.00
CN1CCc2cccc(OCC(=O)NCC(O)CN3CCc4ccccc4C3)c2C1 (stereo unspecified) | < 4.70 | 5.00 to 6.00 | 6.00 to 7.00
OC(COc1cccc(-c2ccc3ncn(C4CCNC4)c3c2)c1)CN1CCc2ccccc2C1 (stereo unspecified) | 5.00 to 6.00 | 6.00 to 7.00 | > 7.00
O=C1CN(c2ccccc2Cl)CCN1CC(O)CN1CCc2ccccc2C1 (stereo unspecified) | 4.30 to 5.00 | 6.00 to 7.00 | 6.00 to 7.00
OC(COc1cccc(-c2cc(C(F)(F)F)ccc2Cl)c1)CN1CCc2ccccc2C1 (stereo unspecified) | 4.40 to 5.00 | 5.00 to 6.00 | 6.00 to 7.00
O=C(COc1cccc(CN2CCOCC2)c1)NCC(O)CN1CCc2ccccc2C1 (stereo unspecified) | 5.00 to 6.00 | > 7.00 | > 7.00
OC(CNc1cc(-c2ccc3ncn(C4COC4)c3c2)ccn1)CN1CCc2ccccc2C1 (stereo unspecified) | 5.00 to 6.00 | 6.00 to 7.00 | > 7.00
OC(COc1cccc(-c2ccc3c(c2)OCCO3)c1)CN1CCc2ccccc2C1 (stereo unspecified) | 4.40 to 5.00 | 5.00 to 6.00 | 6.00 to 7.00
Cn1cc2ccc(-c3cccc(NCC(O)CN4CCc5ccccc5C4)c3)nc2n1 (stereo unspecified) | 4.40 to 5.00 | 6.00 to 7.00 | > 7.00
O=C(Cn1ccc2cnc(-c3ccnc(NCC(O)CN4CCc5ccccc5C4)c3)nc21)N1CCOCC1 (stereo unspecified) | 6.00 to 7.00 | > 7.00 | > 7.00
O=C(COc1ccc2c(cnn2C2CCNC2)c1)NCC(O)CN1CCc2ccccc2C1 (stereo unspecified) | 4.30 to 5.00 | 6.00 to 7.00 | > 7.00
Cn1ncc2cc(-c3cccc(OCC(O)CN4CCc5ccccc5C4)c3)ccc21 (stereo unspecified) | 4.40 to 5.00 | 5.00 to 6.00 | > 7.00
